From article PMC6031733, “Adding a C-terminal Cysteine (CTC) Can Enhance the Bactericidal Activity of Three Different Antimicrobial Peptides” (Frontiers in Microbiology, 2018)
Read-outs that look alike come from different tables or passages of the source. Positions of bridges follow the written chain, without caps; N, C: chain ends. Non-standard residues stand in square brackets, D forms with d. Residues, ends and D or L forms follow the SMILES beside them. No end group written: not given here. *: point of attachment. X1 = CC[C@H](C)CCCCC(=O)*; Dab = NCC[C@H](N)C(=O)O

Assays:
[1] = tested on: colistin-resistant A. baumannii TCGH 46709; assay: Mouse lung infection model, survival; type: in vivo; settings: C57BL/6JNarl mice, i.t. A. baumannii TCGH 46709 3.5 × 10^8 CFU/mouse, three consecutive days, 16 mice/group, 3 days
Method: (§1) We determined the in vivo protection efficacy of peptides in two different mouse infection models. In the mouse sepsis model ([Chen et al., 2016]), 3-week-old male ICR mice (∼20 g) were purchased from BioLASCO (Taiwan). These mice were inoculated intraperitoneally with S. aureus ATCC 19636 (4 × 10^6 CFU/mouse). At 2 h post-inoculation, the mice were randomly separated into 5 groups and received peptides (5 or 10 mg/kg) or the PBS control, respectively. Each group contained 5 mice. Mortality was monitored daily for 7 days following the bacterial inoculation. This experiment was repeated twice. In the mouse lung infection model ([Yang et al., 2016]), 6–8-week-old male C57BL/6JNarl mice (∼27 g) were purchased from National Laboratory Animal Center, Taiwan. The inoculums (3.5 × 10^8 CFU/mouse) were prepared by 1:1 mixing of LB culture and 10% mucin (Sigma). All mice were randomly separated into 3 groups and anesthetized by Isoflurane via inhalation, and inoculated intra-tracheally with colistin-resistant A. baumannii TCGH 46709. Two hours after inoculation, the mice were intraperitoneally injected daily with either colistin (5 mg/kg) ([Fishbain and Peleg, 2010]) or HBcARD derivative peptides (5 or 10 mg/kg), respectively, for three consecutive days. Each group contained 8 mice. Mortality was monitored every 12 h following the bacterial inoculation. This experiment was repeated twice.
C57BL/6JNarl mice (∼27 g) were anesthetized and intra-tracheally inoculated with A. baumannii (3.5 × 10^8 CFU/mouse). At 2 h post-inoculation, the mice received i.p. injection of either D-150-177C or colistin, respectively, for three consecutive days (1 injection per day).

ICR mice [2] = assay: In vivo acute toxicity, serum ALT (liver injury)
Method: (§2) To measure in vivo the acute toxicity, 3-week-old male ICR mice (∼20 g) were purchased from BioLASCO (Taiwan). The mice were randomly separated into 6 groups, and were intraperitoneally injected with D-150-177C at concentrations of 20, 40, 60, and 80 mg/kg. A last-line antibiotic, polymyxin B (20 and 50 mg/kg), was used as a control. Each group contained 5 mice. At 1 day post-injection, blood sample was collected from each mouse. The liver function of mice was determined by measuring the ALT level in the blood. The survival rates of injected mice were monitored for 7 days.
(§3) Polymyxins are the last-line antibiotics, but could be toxic at higher dose. We compared the acute toxicity of peptide D-150-177C with polymyxin B using ICR mice. The mice (∼20 g) were i.p. injected with D-150-177C peptide (20–80 mg/kg body weight). Polymyxin B (50 mg/kg body weight) was used as a control antibiotic. […] In contrast, all mice died of polymyxin B at 50 mg/kg.

ICR mice [3] = assay: In vivo acute toxicity, survival
Method: as §2, §3

S. aureus ATCC 19636 = assay: Mouse sepsis model, survival; type: in vivo; settings: ICR mice
Method: as §1
The mice (∼20 g) were i.p. (intraperitoneally) inoculated with S. aureus ATCC19636 (4 × 10^6 CFU/mouse), followed by treatments with peptides or the PBS control at 2 h post-inoculation. We monitored the survival rate for 7 days (Figure 2B). All mice treated with PBS (10/10) died at day 1 post-inoculation. […] In contrast, administration of L-150-177C peptide at the same dose protected 70% of mice (7/10) from death (p < 0.05). It appears that the C-terminal cysteine is very critical for the in vivo protection as well. Next, we compared the in vivo protection efficacy of HBcARD 150-177C peptides containing either D-form or L-form arginines in this same model. The protection efficacy of peptide L-150-177C was 30% (3/10) at 5 mg/kg, whereas D-150-177C can protect all mice (10/10) from death at the same dose (Figure 2B).

[4] = tested on: colistin-sensitive A. baumannii ATCC17978; assay: Mouse lung infection model, survival; type: in vivo; settings: C57BL/6JNarl mice, i.t. colistin-sensitive A. baumannii ATCC17978; i.p. daily for three days; data not shown
A. baumannii ATCC17978 [5] = settings: A. baumannii ATCC17978 strain
Method: (§4) Peptides were diluted in the same buffer. […] All peptides were tested in triplicate. […] Peptides were also diluted in MH broth. […] All peptides were tested in duplicate.

P. aeruginosa ATCC27853 = assay: Minimum bactericidal concentration (MBC); type: cell-based, Pseudomonas aeruginosa; settings: phosphate buffer pH 7.2, 37°C, 3 h, zero colony, triplicate
Method: as §4

S. aureus ATCC19636 = type: cell-based, Staphylococcus aureus; settings: for MBC: pH 7.2
Method: as §4

S. aureus ATCC25923 = assay: Minimum bactericidal concentration (MBC); type: cell-based, Staphylococcus aureus; settings: phosphate buffer pH 7.2, 37°C, 3 h, zero colony, triplicate
Method: as §4

S. aureus ATCC29213 = assay: Minimum bactericidal concentration (MBC); type: cell-based, Staphylococcus aureus; settings: phosphate buffer pH 7.2, 37°C, 3 h, zero colony, triplicate
Method: as §4

P. aeruginosa ATCC9027 = type: cell-based, Pseudomonas aeruginosa
Method: as §4

E. coli ATCC25922 = assay: Minimum bactericidal concentration (MBC); type: cell-based, Escherichia coli; settings: phosphate buffer pH 7.2, 37°C, 3 h, zero colony, triplicate
Method: as §4

A. baumannii ATCC17978 [6] = type: cell-based, Acinetobacter baumannii
Method: as §4

A. baumannii ATCC45530 = assay: Minimum bactericidal concentration (MBC); type: cell-based, Acinetobacter baumannii; settings: A. baumannii ATCC45530 (so in the source); phosphate buffer pH 7.2, 37°C, 3 h; zero colony; triplicate
Method: as §4

A. baumannii ATCC46709 = assay: Minimum bactericidal concentration (MBC); type: cell-based, Acinetobacter baumannii; settings: A. baumannii ATCC46709 (so in the source); phosphate buffer pH 7.2, 37°C, 3 h; zero colony; triplicate
Method: as §4

A. baumannii ATCC19606 = assay: Minimum bactericidal concentration (MBC); type: cell-based, Acinetobacter baumannii; settings: phosphate buffer pH 7.2, 37°C, 3 h, zero colony, triplicate
Method: as §4

K. pneumoniae ATCC13884 = type: cell-based, Klebsiella pneumoniae
Method: as §4

[7] = treated mice, all tissues; ref Chen et al., 2013; cited from earlier work
Text: To reduce the cost for D-amino acids in peptide synthesis, we engineered peptides DL-150-177C and LD-150-177C, which contain only approximately 50 ...

[8] = S. aureus ATCC19636 4 × 10^6 CFU/mouse i.p., peptide 5 mg/kg at 2 h post-inoculation, 7 days, n = 10/group (Figure 2B)
[9] = S. aureus ATCC19636, 10^6 CFU/ml in 10 mM sodium phosphate, 50 mM NaCl, 37°C, 3 h, plated on MH agar, zero colony, triplicate
[10] = P. aeruginosa ATCC9027, phosphate buffer pH 7.2, 37°C, 3 h, zero colony, triplicate
[11] = A. baumannii ATCC17978, phosphate buffer pH 7.2, 37°C, 3 h, zero colony, triplicate

Compound: C[C@@H](O)[C@H](NC(=O)[C@@H](CCCNC(=N)N)NC(=O)[C@@H](CCCNC(=N)N)NC(=O)[C@@H](CCCNC(=N)N)NC(=O)[C@@H]1CCCN1C(=O)[C@H](CO)NC(=O)[C@@H](CCCNC(=N)N)NC(=O)CNC(=O)[C@@H](CCCNC(=N)N)NC(=O)[C@@H](CCCNC(=N)N)NC(=O)[C@H](N)CCCNC(=N)N)C(=O)N1CCC[C@H]1C(=O)N[C@@H](CO)C(=O)N1CCC[C@H]1C(=O)N[C@H](CCCNC(=N)N)C(=O)N[C@H](CCCNC(=N)N)C(=O)N[C@H](CCCNC(=N)N)C(=O)N[C@H](CCCNC(=N)N)C(=O)N[C@@H](CO)C(=O)N[C@@H](CCC(N)=O)C(=O)N[C@@H](CO)C(=O)N1CCC[C@H]1C(=O)N[C@H](CCCNC(=N)N)C(=O)N[C@H](CCCNC(=N)N)C(=O)N[C@H](CCCNC(=N)N)C(=O)N[C@H](CCCNC(=N)N)C(=O)N[C@@H](CO)C(=O)N[C@@H](CS)C(=O)O [D-150-177C] (H-[dR][dR][dR]G[dR]SP[dR][dR][dR]TPSP[dR][dR][dR][dR]SQSP[dR][dR][dR][dR]SC-OH; N-terminus and C-terminus assumed)
- survival rate (mice protected from death) ([1]; 5 mg/kg/day i.p. from 2 h): 62.5%
- survival rate (mice protected from death) ([1]; 10 mg/kg/day i.p. from 2 h): 87.5%
- ALT level compared with polymyxin B at 20 mg/kg (ICR mice [2]; i.p. 20 mg/kg, serum at day 1): slight increase
- ALT level compared with polymyxin B at 20 mg/kg (ICR mice [2]; i.p. 40 mg/kg, serum at day 1): slight increase
- ALT level compared with polymyxin B at 20 mg/kg (ICR mice [2]; i.p. 60 mg/kg, serum at day 1, P < 0.01): significantly higher
- average ALT value (ICR mice [2]; i.p. 60 mg/kg, serum at day 1 post-injection): less than 100 IU/L
- LD50 (ICR mice [3]; i.p., estimated from survival at 20-80 mg/kg): ~75 mg/kg
- survival rate (ICR mice [3]; single i.p. 20 mg/kg, 7 days, 5 mice/group): 100%
- survival rate (ICR mice [3]; single i.p. 40 mg/kg, 7 days, 5 mice/group): 100%
- survival rate (ICR mice [3]; single i.p. 60 mg/kg, 7 days, 5 mice/group): 80%
- survival rate (ICR mice [3]; single i.p. 80 mg/kg, 7 days, 5 mice/group): 40%
- survival rate (S. aureus ATCC 19636; [8]): 100%
- survival rate (S. aureus ATCC 19636; S. aureus sepsis, peptide 5 mg/kg at 2 h post-inoculation, n = 10/group, D-arginine substitution comparison (Figure 4)): protected all mice from death
- survival rate [4]: comparable to that of colistin treatment

Compound: polymyxin B [reference compound]
- survival (ICR mice [3]; single i.p. 50 mg/kg, 7 days, 5 mice/group): all mice died

Compound: CC[C@H](C)CCCCC(=O)N[C@@H](CCN)C(=O)N[C@H](C(=O)N[C@@H](CCN)C(=O)N[C@H]1CCNC(=O)[C@H]([C@@H](C)O)NC(=O)[C@H](CCN)NC(=O)[C@H](CCN)NC(=O)[C@H](CC(C)C)NC(=O)[C@@H](CC(C)C)NC(=O)[C@H](CCN)NC1=O)[C@@H](C)O [colistin, reference compound] (X1-[Dab]T[Dab][Dab][Dab][dL]L[Dab][Dab]T; lactam 4-C (inferred); N-terminus assumed)
- survival rate (mice protected from death) ([1]; 5 mg/kg/day i.p. from 2 h): 12.5%
- MIC (A. baumannii ATCC17978 [5]): around 4 mg/L

Compound: RRRGRSPRRRTPSPRRRRSQSPRRRRSC [150-177C]
- survival rate (S. aureus ATCC 19636; [8]): 30%
- survival rate (S. aureus ATCC 19636; S. aureus ATCC19636 4 × 10^6 CFU/mouse i.p., peptide 10 mg/kg at 2 h post-inoculation, 7 days, n = 10/group (Figure 2B)): 70%
- MBC (P. aeruginosa ATCC27853): 7.1 µg/mL
- MBC (S. aureus ATCC19636; [9]): 7.1 µg/mL
- MBC (S. aureus ATCC25923): 7.1 µg/mL
- MBC (S. aureus ATCC29213): 7.1 µg/mL
- MBC (P. aeruginosa ATCC9027; [10]): 7.1 µg/mL
- MBC (E. coli ATCC25922): 7.1 µg/mL
- MBC (A. baumannii ATCC17978 [6]; [11]): 1.8 µg/mL
- MBC (A. baumannii ATCC45530): 1.8 µg/mL
- MBC (A. baumannii ATCC46709): 3.6 µg/mL
- MBC (A. baumannii ATCC19606): 0.9 µg/mL

Compound: NAKDYKGAAAEFPKWNKAGGRVLAGLVKRRKC [LysinC]
- MBC (S. aureus ATCC19636; ATCC19636, 3 h): 128 µg/mL
- decrease in MBC relative to parental peptide without C-terminal cysteine (S. aureus ATCC19636; S. aureus): > 8 fold
- MBC (P. aeruginosa ATCC9027; ATCC9027, 3 h, pH 7.2): 16 µg/mL
- decrease in MBC relative to parental peptide without C-terminal cysteine (P. aeruginosa ATCC9027; P. aeruginosa): 4 fold
- decrease in MBC relative to parental peptide without C-terminal cysteine (A. baumannii ATCC17978 [6]; A. baumannii): 32 fold
- MBC (A. baumannii ATCC17978 [6]; ATCC17978, 3 h, pH 7.2): 32 µg/mL
- MBC (K. pneumoniae ATCC13884; ATCC13884, 3 h, pH 7.2): 128 µg/mL
- decrease in MBC relative to parental peptide without C-terminal cysteine (K. pneumoniae ATCC13884; K. pneumonia): > 8 fold

Compound: RRRRSQSPRRRRSC [164-177C]
- MBC (S. aureus ATCC19636; [9]): > 57.2 µg/mL

Compound: TVVRRRGRSPRRRTPSPRRRRSQSPRRRRSQSRESQC [147-183]
- reduction of bacterial burdens in spleen, liver, and blood [7]: approximately 100 fold
- MBC (P. aeruginosa ATCC27853): 9.2 µg/mL
- MBC (S. aureus ATCC19636; [9]): 18.3 µg/mL
- MBC (S. aureus ATCC25923): 18.3 µg/mL
- MBC (S. aureus ATCC29213): 18.3 µg/mL
- MBC (P. aeruginosa ATCC9027; [10]): 9.2 µg/mL
- MBC (E. coli ATCC25922): 18.3 µg/mL
- MBC (A. baumannii ATCC17978 [6]; [11]): 2.3 µg/mL
- MBC (A. baumannii ATCC45530): 2.3 µg/mL
- MBC (A. baumannii ATCC46709): 4.6 µg/mL
- MBC (A. baumannii ATCC19606): 2.3 µg/mL

Compound: RRRTPSPRRRRSQSPRRRRSC [157-177C]
- MBC (S. aureus ATCC19636; [9]): > 57.2 µg/mL

Compound: RRRGRSPRRRTPSPRRRRSC [150-171C]
- MBC (S. aureus ATCC19636; [9]): > 57.2 µg/mL
